Measurements as given in US6265423A, “Aromatic polycyclic retinoid-type derivatives, method for preparing same, and use thereof for making pharmaceutical and cosmetic compositions” (priority 1996, dated 2001).
“Also recorded” adds a separate entry of the source. Read-outs that look alike come from different tables or passages of the source.

Experiments:
[1] = system: ZR-75-1 human mammary cancer cells; assay: MTT test, proliferation of ZR-75-1; type: cell-based; conditions: for activity at 100 µM / activity at 1 µM / activity at 0.01 µM: Homo sapiens, read-out: level of proliferation; for effect on cellular increase, ZR-75-1 (in words): MTT test
In short: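 Cells grown at 37° C in MEM/5% FCS were plated for 24 h, then treated at 10^-8, 10^-6 or 10^-4 M. Each condition was run in 6 duplicates.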

RARβ-ERcassette = assay: Transactivation, chimerical receptor RARβ-ERcassette (HeLa); type: cell-based; conditions: TTNPB 10^-8 M = 100
In short: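 First, HeLa cells receive the chimeric RAR construct, whose native DNA-binding domain is exchanged for the oestrogen receptor's, plus an ERE-luciferase reporter and β-galactosidase control, by calcium phosphate co-precipitation. After 24 h, cells are incubated with effectors for 16 h before luciferase measurement.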

T-47D cells = assay: Effect on oestrogen-induced proliferation of T-47D cells; type: cell-based, human; conditions: for activity at 1 µM: 10^-6 M, 100% = E2 10^-9 M, read-out: growth of T-47D cells
[2] = system: RARE, endogenic RAR and RXR receptors, HRL+N lineage; assay: HRL+N transactivation (RARE-luciferase, stably transfected HeLa); type: cell-based; parameters: Emax: dose or concentration left out as unconfirmed; conditions: for Emax: Homo sapiens, HeLa
Procedure: MCF-7 cells and HeLa are cultivated in DMFM with phenol red to which 5% foetal calf serum is added. The T47-D cells are cultivated in RPMI to which 10% foetal calf serum is added. The experimental tests are carried out in DMEM without phenol red to which foetal calf serum treated with dextran carbon is added at 3%. […] The experiments using the different retinoids are carried out sheltered from the light so as to avoid any isomerisation.
Certain properties of the retinoids have been determined using more developed cellular models. These models consist of cellular lineages transfected in a stable fashion by recombinant plasmids which place the expression of the gene of the luciferase under the control of different nuclear response elements. […] The tests carried out in duplicate are described below for each of these models.
The cellular lineages HRLN and HRL+N allow one to study the activation of an RARE by endogenic receptors using ligands at physiological concentrations. These lineages derive from HeLa cells transfected in a stable fashion by a reporter gene which places the expression of the gene of the luciferase under the control of a nuclear response element RARE (RARE3 -tk-Luc). The HeLa cells express all the known receptors of the retinoic acid (RARα,β,γ and RXRα,β,γ) with a predominance of RARα and RXRα. The response element RARE used for the HRLN cells corresponds to the sequence of the natural gene of the RARβ receptor (GGTTCAnnnnnAGTTCA). The HRL+N cells comprise the sequence GAGTGAnnnnnCGGTGA.
The HRL+N lineage allows one to visualise a co-activation of the RAR and RXR receptors at the level of the RAR-RXR hetero-dimer.

RAR and RXR receptors = assay: RAR/RXR activity profile drawn from the models; type: cell-based
Text: The reference molecules have allowed one to show the effectiveness and the complementary nature of the different models used and lead to the following conclusions: chimerical constructions GAL-RAR and RAR-ERcassette allow the determination of the RAR agonist profile of molecules, but also an RXR agonist activity with RAR-ERcassette, the HRLN lineage mainly conveys the activity of a compound mediated by endogenic RARα, the HRL+N lineage also provides evidence of an RXR agonist activity of the retinoids, the anti-oestrogenic effect of the retinoids (oestrogen-induced cellular proliferation and MELN lineage) is mediated by RARα, the anti-AP-1 effect is mediated in the MCF-7 cells (MTLN lineage) by RARα, RARγ and RXRα, and an additive effect exists between the RAR and RXR routes.

[3] = system: ZR-75-1, T-47D, A549 and A-427 lineages; assay: MTT test, tumour cell lines overall; type: cell-based, human
Procedure: This test is based on the mitochondrial reduction by living metabolically active cells of the MTT (3-(4,5-dimethylthiazol-2-yl)-2,5-diphenyltetrazolium bromide) of yellowish colour into a blue coloured product, formazan. The quantity of formazan obtained is directly proportional to the number of living cells. After incubation of the cells for 24 hours in microplates with 96 flat bottomed wells, the culture medium is replaced by 100 μl of fresh culture medium containing the drug to be tested.
The microplates are then incubated for 3 hours at 37° C. and centrifuged for 10 minutes at 400 g (GPR centrifuge, Beckman). The MTT solution is replaced by 100 μl of dimethylsulphoxide (Merck). The microplates are agitated (Vari-Shaker, Dynatech) for 10 minutes.
In the microplates, the control cells like the treated cells were incubated in a medium without the compounds to be tested for 24 hours. The control cells are incubated in a medium without a drug throughout the whole experiment, while the treated cells are incubated in different media. These media contain the molecule to be tested at various concentrations: 10^-8 M, 10^-6 M and 10^-4 M. All the tests are carried out in 6 duplicates.

[4] = ZR-75-1, 10^-4 M, 72 h, control = 100%
[5] = ZR-75-1, 10^-6 M, 72 h, control = 100%
[6] = ZR-75-1, 10^-8 M, 72 h, control = 100%
[7] = Homo sapiens, T47D, 168 h, 7 days
[8] = read-out: HRL+N transactivation, E max (Table 27)

| Compound | activity at 100 µM [1, 4] [%] | activity at 1 µM [1, 5] [%] | activity at 0.01 µM [1, 6] [%] | RAR-ERcassette RARβ transactivation (RARβ-ERcassette; 10^-6 M) [%] | RAR-ERcassette RARβ transactivation (RARβ-ERcassette; 10^-7 M) [%] | RAR-ERcassette RARβ transactivation (RARβ-ERcassette; 10^-8 M) [%] | activity at 1 µM (T-47D cells; [7]) [%] | HRL+N transactivation (in words) [2] | RAR/RXR activity profile (in words) (RAR and RXR receptors) | other results |
| --- | --- | --- | --- | --- | --- | --- | --- | --- | --- | --- |
| CC(C=C/C=C(C)\C=C\C1=C(C)CCCC1(C)C)=CC(=O)O [CB13407, 9-cis retinoic acid, reference compound] | 39.2 | 130 | 137 | 369 | 212 | 94 |  |  |  | effect on cellular increase, ZR-75-1 (in words) [1]: stimulates the cellular increase at 10^-6 M and 10^-8 M; RAR-ERcassette RARβ transactivation (RARβ-ERcassette; 10^-9 M): 16%; IC50 (T-47D cells; Homo sapiens, T47D, 168 h, read-out: anti-proliferation effect, T-47D IC50): 25.1 ± 1.4 nM |
| CC1=C(/C=C/C(C)=C/C=C/C(C)=C/C(=O)O)C(C)(C)CCC1 [CB16178, all-trans retinoic acid, reference compound] | 7.3 | 57.2 | 46.9 | 475 | 270 | 128 |  |  |  | effect on cellular increase, ZR-75-1 (in words) [1]: inhibit the cellular increase of the two mammary lineages at the concentrations tested; RAR-ERcassette RARβ transactivation (RARβ-ERcassette; 10^-9 M): 93%; Emax ([2]; read-out: HRL+N transactivation, Emax): 225% |
| C/C(=C/c1ccc2c(c1)C(C)(C)CCC2(C)C)c1ccc(C(=O)O)nc1 [CB16279, (Z) 5-[1-(5,6,7,8-tetrahydro-5,5,8,8-tetramethyl-2-naphthalenyl)-2-propenyl]pyridinyl-2-carboxylic acid] |  |  |  | 118 | 60 |  | 84 | bring about a transactivation greater than RAR selective agonists (TTNPB) | panagonistic |  |
| C/C(=C/c1ccc2c(c1)C(C)(C)CCC2(C)C)c1ccc(C(=O)O)cc1 [CB28628, reference compound] | 19.4 | 83.5 | 80.8 | 183 | 115 | 88 | 33 | induces a transactivation maximum greater than that of TTNPB |  | inhibition of growth (of the order of) (T-47D cells; estradiol 10^-9 M, 7 days): ~70%; Emax [2, 8]: 158% |
| CC1(C)CCC(C)(C)c2cc(/C=C(\c3ccc(C(=O)O)cc3)C(F)(F)F)ccc21 [CB36493, (E) 4-[1-trifluoromethyl-2-(5,6,7,8-tetrahydro-5,5,8,8-tetramethyl-2-naphthalenyl)-1-ethenyl]benzoic acid] | 8.6 | 108 | 108 | 205 | 34 | 0 | 68 to 78 |  | panagonistic |  |
| C/C(=C/c1ccc2c(c1)C(C)(C)CCC2(C)C)c1ccc(C(=O)O)cn1 [CB38416, (Z) 2-[1-(5,6,7,8-tetrahydro-5,5,8,8-tetramethyl-2-naphthalenyl)-2-propenyl]pyridinyl-5-carboxylic acid] | 55.8 | 98.3 | 122 | 198 | 57 | 10 | 50 to 60 | bring about a transactivation greater than RAR selective agonists (TTNPB) | panagonistic | Emax [2, 8]: 131% |
| C/C(=C\c1cc2c(cc1C)C(C)(C)CCC2(C)C)c1ccc(C(=O)O)cc1 [CB71802] | 7.8 | 96 | 101 |  |  |  |  |  |  | inhibition at 1 µM (T-47D cells; Homo sapiens, T47D, 168 h, 1 μM (10^-6 M), 7 days, estradiol 10^-9 M, read-out: percentage inhibition of growth, T-47D): 72% |
| C/C(=C\c1ccc2c(c1)C(C)(C)CCC2(C)C)c1ccc(C(=O)Nc2nnn[nH]2)cc1 [CB73364] | 0 | 101 | 119 | 118 |  |  |  |  |  | effect on oestrogen-induced growth, T-47D (in words) (T-47D cells; estradiol 10^-9 M): exerts an effect comparable to TTNPB |
| CC1(C)CCC(C)(C)c2cc(/C=C(\c3ccc(-c4nnn[nH]4)cc3)C(F)(F)F)ccc21 [CB77402, (E) 5-[4-[1-trifluoromethyl-2-(5,6,7,8-tetrahydro-5,5,8,8-tetramethyl-2-naphthalenyl)-1-ethenyl]phenyl]-1H-tetrazole] | 7.5 | 96.6 | 99.9 | 37 | 31 | 0 |  | weak transactivation, less than that of TTNPB; also recorded: with a specific RAR agonist induces a stronger transactivation than that observed for each compound tested separately | RXR specific activity | Emax [2, 8]: 33% |
| Cc1cc2c(cc1C(=O)c1ccc(C(=O)O)cc1)C(C)(C)CCC2(C)C [LGD-CB14499, reference compound] |  |  |  | 130 | 58 | 10 |  | induce a stronger transactivation with the HRL+N cells |  | activity at 0.01 µM ([1]; ZR-75-1, 72 h): 107%; activity at 1 µM ([1]; ZR-75-1, 72 h): 104%; activity at 100 µM ([1]; ZR-75-1, 72 h): 42.4% |
| C/C(=C\c1ccc(C(=O)O)cc1)c1ccc2c(c1)C(C)(C)CCC2(C)C [TTNPB, reference compound] | 15.7 | 69.8 | 60.6 |  |  |  |  |  |  | effect on cellular increase, ZR-75-1 (in words) [1]: inhibit the cellular increase of the two mammary lineages at the concentrations tested; effect on oestrogen-induced growth, T-47D (in words) (T-47D cells; estradiol 10^-9 M): stronger inhibiting effect than the natural ligands (all-trans RA and 9-cis RA) and than LGD1069; inhibition of the cellular lineages (in words) [3]: induces the strongest inhibition of the cellular lineages |
